According to US8796283B2, “Indole and azaindole modulators of the alpha 7 nachr” (Proximagen Limited, priority 2009, dated 2014):
Where a name gives a salt, the structure may show the parent alone. Read-outs that look alike come from different tables or passages of the source.

Molecular target: T1, human α7 nAChR (Homo sapiens, UniProt P36544)
T1 construct: expressed in transfected cells; host or cells: GH4C1 (rat pituitary) cell line, stably transfected
Assay: cell-based calcium flux assay (FLIPR) for PAM activity, nicotine-evoked response
Conditions: GH4C1 cell line stably transfected with human α7 nAChR, potentiation of nicotine calcium flux
Description: The PAM activity of the compounds of the invention at the α7 nAChR may be determined using the following cell-based calcium flux assay which uses a Fluorimetric Image Plate Reader (FLIPR) (see Schroeder et al.; J. Biomolecular Screening, 1(2), p 75-80, 1996). GH4C1 cell line stably transfected with human α7 nAChR was suspended in a 384 well plate and incubated at 30° C. for 48 h in a 5% carbon dioxide atmosphere. The growth media was removed and the cells washed three times with a solution of Hanks' balanced salt solution (HBSS), 20 mM HEPES and 2.5 mM probenecid leaving 20 μl washing solution in each well. A loading solution (20 μl) containing HBSS, probenecid, 1-4 μM Fluo4 AM (a calcium indicator dye) and pluronic acid was added and the plate incubated for 45 min at 37° C. under an atmosphere free from carbon dioxide. The cells were washed three times leaving 30 μl in each well. The plate containing the cells and calcium indicator dye were then transferred to the FLIPR. The assay was initiated by collecting baseline datapoints at 10 second intervals followed by addition of the test compound in buffer solution (0.33% DMSO) and diluted to a final concentration of 10 μM and serial dilution of the wells, 1:2 or 1:3, gave a low concentration of <1 nM. Following a further 5-10 mins 10 μl of 50 μM nicotine was added and data collected for 2-3 mins. Nicotine produced a rapid, transient and reproducible calcium flux which could be potentiated with the positive allosteric modulator test compounds.

[1] = read-out: pEC50 Mean (converted)

T1 sequence (P36544 23-502): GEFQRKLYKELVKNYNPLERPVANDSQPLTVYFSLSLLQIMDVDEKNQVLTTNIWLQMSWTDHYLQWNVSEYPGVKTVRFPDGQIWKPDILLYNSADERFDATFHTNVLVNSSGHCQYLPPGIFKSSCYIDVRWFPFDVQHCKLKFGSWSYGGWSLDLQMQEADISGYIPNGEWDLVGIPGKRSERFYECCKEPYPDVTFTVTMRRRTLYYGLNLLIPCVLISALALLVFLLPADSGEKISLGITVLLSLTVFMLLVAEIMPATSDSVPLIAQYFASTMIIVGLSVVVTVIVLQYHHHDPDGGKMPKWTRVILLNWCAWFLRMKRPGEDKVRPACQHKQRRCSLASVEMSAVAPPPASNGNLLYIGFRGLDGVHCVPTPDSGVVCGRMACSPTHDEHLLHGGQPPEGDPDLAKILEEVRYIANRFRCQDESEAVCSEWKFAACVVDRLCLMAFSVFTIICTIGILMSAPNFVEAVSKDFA

SMILES	EC50 [1]	also measured
CCc1cc(NCc2cnc3[nH]c(C(F)(F)F)cc3c2)ncn1.Cl [5 HCl, 6-Ethyl-N-{[2-(trifluoromethyl)-1H-pyrrolo[2,3-b]pyridin-5-yl]methyl}-4-pyrimidinamine HCl]		pEC50 Mean: * (pEC50 mean of at least 5.0)
CC(F)(F)c1cc(NCc2cnc3[nH]c(C(F)(F)F)cc3c2)ncn1.Cl [8 HCl, 6-(1,1-Difluoroethyl)-N-{[2-(trifluoromethyl)-1H-pyrrolo[2,3-b]pyridin-5-yl]methyl}-4-pyrimidinamine hydrochloride]		pEC50: 6; pEC50 Mean: *** (pEC50 mean of at least 6.0)
CC(F)c1cc(NCc2cnc3[nH]c(C(F)(F)F)cc3c2)ncn1 (stereo not drawn) [9 HCl]	≤ 3.16 µM	
Cl.FC(F)c1cc(NCc2cnc3[nH]c(C(F)(F)F)cc3c2)ncn1 [10 HCl, 6-(Difluoromethyl)-N-{[2-(trifluoromethyl)-1H-pyrrolo[2,3-b]pyridin-5-yl]methyl}-4-pyrimidinamine hydrochloride]		pEC50 Mean: ** (pEC50 mean of at least 5.5)
FCc1cc(NCc2cnc3[nH]c(C(F)(F)F)cc3c2)ncn1 [11 HCl, 6-(Fluoromethyl)-N-{[2-(trifluoromethyl)-1H-pyrrolo[2,3-b]pyridin-5-yl]methyl}-4-pyrimidinamine hydrochloride]	≤ 10 µM	
Cl.FC(F)(F)c1cc2cc(CNc3cc(C4CC4)ncn3)cnc2[nH]1 [14 HCl]		pEC50 Mean: * (pEC50 mean of at least 5.0)
Cl.[2H]C([2H])(Nc1cc(C2CC2)ncn1)c1cnc2[nH]c(C(F)(F)F)cc2c1 [14-d HCl]	≤ 3.16 µM	
CCc1ncnc(NCc2cnc3[nH]c(C(F)(F)F)cc3c2)c1F [16 HCl, 6-Ethyl-5-fluoro-N-{[2-(trifluoromethyl}-1H-pyrrolo[2,3-b]pyridin-5-yl]methyl}-4-pyrimidinamine hydrochloride]	≤ 1 µM	
Cc1c(NCc2cnc3[nH]c(C(F)(F)F)cc3c2)ncnc1C(C)F (stereo not drawn) [20 HCl]	≤ 1 µM	
Cc1c(NCc2cnc3[nH]c(C(F)(F)F)cc3c2)ncnc1C(C)(F)F [21 HCl]	≤ 1 µM	
Cc1c(NCc2cnc3[nH]c(C(F)(F)F)cc3c2)ncnc1C(F)(F)F [22 HCl, 5-Methyl-6-(trifluoromethyl)-N-{[2-(trifluoromethyl)-1H-pyrrolo[2,3-b]pyridin-5-yl]methyl}-4-pyrimidinamine hydrochloride]	≤ 1 µM	
Cc1c(CF)ncnc1NCc1cnc2[nH]c(C(F)(F)F)cc2c1 [24 HCl]	≤ 10 µM	
Cc1c(NCc2cnc3[nH]c(C(F)(F)F)cc3c2)ncnc1C1CC1 [25 HCl, 6-Cyclopropyl-5-methyl-N-{[2-(trifluoromethyl)-1H-pyrrolo[2,3-b)pyridin-5-yl]methyl}-4-pyrimidinamine hydrochloride]	≤ 3.16 µM	
FC(F)(F)c1cc(NCc2cnc3[nH]c(C(F)(F)F)cc3c2)ncn1 [Example 1, 6-(Trifluoromethyl)-N-{[2-(trifluoromethyl)-1H-pyrrolo[2,3-b]pyridin-5-yl]methyl}-4-pyrimidinamine]	≤ 1 µM	
CC(C)c1cc(NCc2cnc3[nH]c(C(F)(F)F)cc3c2)ncn1 [Example 2, 6-(1-Methylethyl)-N-{[2-(trifluoromethyl)-1H-pyrrolo[2,3-b]pyridin-5-yl]methyl}-4-pyrimidinamine]	≤ 10 µM	
N#Cc1cc(NCc2cnc3[nH]c(C(F)(F)F)cc3c2)ncn1 [Example 3, 6-({[2-(Trifluoromethyl)-1H-pyrrolo[2,3-b]pyridin-5-yl]methyl}amino)-4-pyrimidinecarbonitrile]	≤ 3.16 µM	
CC(C)(C)c1cc(NCc2cnc3[nH]c(C(F)(F)F)cc3c2)ncn1 [Example 4, 6-(1,1-Dimethylethyl)-N-{[2-(trifluoromethyl)-1H-pyrrolo[2,3-b]pyridin-5-yl]methyl}-4-pyrimidinamine]	≤ 3.16 µM	

SMILES	EC50 [1]	also measured
CCc1cc(NCc2cnc3[nH]c(C(F)(F)F)cc3c2)ncn1 [Example 5, 6-Ethyl-N-{[2-(trifluoromethyl)-1H-pyrrolo[2,3-b]pyridin-5-yl]methyl}-4-pyrimidinamine]	≤ 10 µM	
N#CCc1cc(NCc2cnc3[nH]c(C(F)(F)F)cc3c2)ncn1 [Example 6, [6-({[2-(Trifluoromethyl)-1H-pyrrolo[2,3-b]pyridin-5-yl]methyl}amino)-4-pyrimidinyl]acetonitrile]	≤ 10 µM	
CC(=O)c1cc(NCc2cnc3[nH]c(C(F)(F)F)cc3c2)ncn1 [Example 7, 1-[6-({[2-(Trifluoromethyl)-1H-pyrrolo[2,3-b]pyridin-5-yl]methyl}amino)-4-pyrimidinyl]ethanone]	≤ 10 µM	
CC(F)(F)c1cc(NCc2cnc3[nH]c(C(F)(F)F)cc3c2)ncn1 [Example 8, 6-(1,1-Difluoroethyl)-N-{[2-(trifluoromethyl)-1H-pyrrolo[2,3-b]pyridin-5-yl]methyl}-4-pyrimidinamine]	≤ 1 µM	EC50 (read-out: pEC50 (converted)): 1 µM
[2H]C([2H])(Nc1cc(C(C)(F)F)ncn1)c1cnc2[nH]c(C(F)(F)F)cc2c1 [Example 8-d]	≤ 3.16 µM	EC50 (read-out: pEC50 (converted)): 1.26 µM
CC(F)c1cc(NCc2cnc3[nH]c(C(F)(F)F)cc3c2)ncn1 (stereo not drawn) [Example 9, 6-(1-Fluoroethyl)-N-{[2-(trifluoromethyl)-1H-pyrrolo[2,3-b]pyridin-5-yl]methyl}-4-pyrimidinamine]	≤ 10 µM	
FC(F)c1cc(NCc2cnc3[nH]c(C(F)(F)F)cc3c2)ncn1 [Example 10, 6-(Difluoromethyl)-N-{[2-(trifluoromethyl)-1H-pyrrolo[2,3-b]pyridin-5-yl]methyl}-4-pyrimidinamine]	≤ 3.16 µM	
FCc1cc(NCc2cnc3[nH]c(C(F)(F)F)cc3c2)ncn1 [Example 11, 6-(Fluoromethyl)-N-{[2-(trifluoromethyl)-1H-pyrrolo[2,3-b]pyridin-5-yl]methyl}-4-pyrimidinamine]	≤ 3.16 µM	
FC(F)(F)c1cc(NCc2ccc3[nH]c(C(F)(F)F)cc3c2)ncn1 [Example 12, 6-(Trifluoromethyl)-N-{[2-(trifluoromethyl)-1H-indol-5-yl]methyl}-4-pyrimidinamine]	≤ 3.16 µM	
FC(F)(F)c1cc2cc(CNc3cc(Cl)ncn3)ccc2[nH]1 [Example 13, 6-Chloro-N-{[2-(trifluoromethyl)-1H-indol-5-yl]methyl}-4-pyrimidinamine]	≤ 10 µM	
FC(F)(F)c1cc2cc(CNc3cc(C4CC4)ncn3)cnc2[nH]1 [Example 14, 6-Cyclopropyl-N-{[2-(trifluoromethyl)-1H-pyrrolo[2,3-b]pyridin-5-yl]methyl}-4-pyrimidinamine]	≤ 10 µM	
CC(C)(F)c1cc(NCc2cnc3[nH]c(C(F)(F)F)cc3c2)ncn1 [Example 15, 6-(1-Fluoro-1-methylethyl)-N-{[2-(trifluoromethyl)-1H-pyrrolo[2,3-b]pyridin-5-yl]methyl}-4-pyrimidinamine]	≤ 1 µM	EC50 (read-out: pEC50 (converted)): 0.398 µM
[2H]C([2H])(Nc1cc(C(C)(C)F)ncn1)c1cnc2[nH]c(C(F)(F)F)cc2c1 [Example 15-d, 6-(1-Fluoro-1-methylethyl)-N-{[2-(trifluoromethyl)-1H-pyrrolo[2,3-b]pyridin-5-yl]methyl}-4-pyrimidinamine-d2]	≤ 1 µM	EC50 (read-out: pEC50 (converted)): 0.631 µM
FC(F)(F)c1cc2cc(CNc3cc(Cl)ncn3)cnc2[nH]1 [Example 17, 6-Chloro-N-{[2-(trifluoromethyl)-1H-pyrrolo[2,3-b]pyridin-5-yl]methyl}-4-pyrimidinamine]	≤ 3.16 µM	
CCc1cc(NCc2ccc3[nH]c(C(F)(F)F)cc3c2)ncn1 [Example 18, 6-Ethyl-N-{[2-(trifluoromethyl)-1H-indol-5-yl]methyl}-4-pyrimidinamine]	≤ 10 µM	
CCc1ncnc(NCc2cnc3[nH]c(C(F)(F)F)cc3c2)c1C [Example 19, 6-Ethyl-5-methyl-N-{[2-(trifluoromethyl)-1H-pyrrolo[2,3-b]pyridin-5-yl]methyl}-4-pyrimidinamine]	≤ 10 µM	
Cc1c(NCc2cnc3[nH]c(C(F)(F)F)cc3c2)ncnc1C(F)F [Example 23, 6-(difluoromethyl)-5-methyl-N-{[2-(trifluoromethyl)-1H-pyrrolo[2,3-b]pyridin-5-yl]methyl}-4-pyrimidinamine]	≤ 3.16 µM	
